# ChEMBL document CHEMBL1201862, “PubChem BioAssay data set” (2004)
#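 Five compound concentrations were applied to cells in 96-well plates for 48 hours; endpoints were derived by simple linear interpolation of the resulting dose-response curve. At the GI50, growth is halved.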 Active and inactive are the calls of the source. Cut-off read from the data, not from the text of the source: active = GI50 up to about 1.1 µM and inactive = higher.
# Experiments:
# Test in all cases: growth of human tumour cells (NCI), 48 h
# [1] = tested on: IGROV-1
# [2] = tested on: MOLT-4
# [3] = tested on: RXF 393
# [4] = tested on: HCT-15
# [5] = tested on: SF-268
# [6] = tested on: MDA-MB-435
# [7] = tested on: A549
# [8] = tested on: 786-0
# [9] = tested on: DU-145
# [10] = tested on: TK-10
# [11] = tested on: UACC-62
# [12] = tested on: SR
# [13] = tested on: CAKI-1
# [14] = tested on: Malme-3M
# [15] = tested on: NCI/ADR-RES
# [16] = tested on: UO-31
# [17] = tested on: NCI-H23
# [18] = tested on: SF-295
# [19] = tested on: SW-620
# [20] = tested on: T47D
# [21] = tested on: HCC 2998
# [22] = tested on: ACHN
# [23] = tested on: SK-OV-3
# [24] = tested on: Hs-578T
# [25] = tested on: OVCAR-3
# [26] = tested on: EKVX
# [27] = tested on: NCI-H522
# [28] = tested on: HOP-62
# [29] = tested on: OVCAR-4
# [30] = tested on: HT-29
# [31] = tested on: MDA-MB-231
# [32] = tested on: BT-549
# [33] = tested on: MDA-N
# [34] = tested on: RPMI-8226
# [35] = tested on: K562
# [36] = tested on: MCF7
# [37] = tested on: M14
# [38] = tested on: SK-MEL-28
# [39] = tested on: LOX IMVI
# [40] = tested on: SK-MEL-2
# [41] = tested on: SNB-19
# [42] = tested on: SK-MEL-5
# [43] = tested on: NCI-H226
# [44] = tested on: CCRF-CEM
# [45] = tested on: SN12C
# [46] = tested on: OVCAR-8
# [47] = tested on: HCT-116
# [48] = tested on: KM12
# [49] = tested on: COLO 205
# [50] = tested on: HL-60
# [51] = tested on: U-251
# [52] = tested on: PC-3
# [53] = tested on: OVCAR-5
# [54] = tested on: UACC-257
# [55] = tested on: SNB-75
# [56] = tested on: A498
# [57] = tested on: NCI-H460
# [58] = tested on: HOP-92
# [59] = tested on: SF-539
compound,measurement,setting,value
CCCN(CCC)CCc1ccc(OC2=CCN(C)CC2)cc1,GI50,[1],67.3 µM (inactive)
same,GI50,[2],43.3 µM (inactive)
same,GI50,[3],> 100 µM (inactive)
same,GI50,[4],36.9 µM
same,GI50,[5],86.1 µM (inactive)
same,GI50,[6],33 µM (inactive)
same,GI50,[7],> 100 µM (inactive)
same,GI50,[8],39.9 µM (inactive)
same,GI50,[9],> 100 µM (inactive)
same,GI50,[10],87.3 µM (inactive)
same,GI50,[11],38 µM (inactive)
same,GI50,[12],28.2 µM (inactive)
same,GI50,[13],> 100 µM (inactive)
same,GI50,[14],13.8 µM (inactive)
same,GI50,[15],> 100 µM (inactive)
same,GI50,[16],23.6 µM (inactive)
same,GI50,[17],> 100 µM (inactive)
same,GI50,[18],> 100 µM (inactive)
same,GI50,[19],> 100 µM (inactive)
same,GI50,[20],> 100 µM (inactive)
same,GI50,[21],> 100 µM (inactive)
same,GI50,[22],95.5 µM (inactive)
same,GI50,[23],> 100 µM (inactive)
same,GI50,[24],40.6 µM (inactive)
same,GI50,[25],79.3 µM (inactive)
same,GI50,[26],> 100 µM (inactive)
same,GI50,[27],21.1 µM (inactive)
same,GI50,[28],> 100 µM (inactive)
same,GI50,[29],> 100 µM (inactive)
same,GI50,[30],16 µM (inactive)
same,GI50,[31],> 100 µM (inactive)
same,GI50,[32],29.8 µM (inactive)
same,GI50,[33],36.6 µM (inactive)
same,GI50,[34],> 100 µM (inactive)
same,GI50,[35],42.6 µM (inactive)
same,GI50,[36],> 100 µM (inactive)
same,GI50,[37],15.7 µM (inactive)
same,GI50,[38],35.3 µM (inactive)
same,GI50,[39],23 µM (inactive)
same,GI50,[40],> 100 µM (inactive)
same,GI50,[41],> 100 µM (inactive)
same,GI50,[42],32.3 µM (inactive)
same,GI50,[43],> 100 µM (inactive)
same,GI50,[44],93.5 µM (inactive)
same,GI50,[45],> 100 µM (inactive)
same,GI50,[46],36.9 µM (inactive)
same,GI50,[47],39.8 µM (inactive)
same,GI50,[48],30.4 µM (inactive)
same,GI50,[49],50.6 µM (inactive)
same,GI50,[50],35.8 µM (inactive)
same,GI50,[51],> 100 µM (inactive)
same,GI50,[52],> 100 µM (inactive)
same,GI50,[53],> 100 µM (inactive)
same,GI50,[54],20.3 µM (inactive)
O=C(Oc1ccccc1)N1c2ccccc2[C@@]23O[C@]24CCC[C@H]3C#C/C=C\C#C[C@H]14,GI50,[1],12.4 µM (inactive)
same,GI50,[2],0.706 µM (active)
same,GI50,[3],10.1 µM (inactive)
same,GI50,[4],13.2 µM
same,GI50,[5],13.6 µM (inactive)
same,GI50,[6],16.1 µM (inactive)
same,GI50,[7],0.0942 µM (active)
same,GI50,[8],10.5 µM (inactive)
same,GI50,[9],1.05 µM (active)
same,GI50,[10],19.9 µM (inactive)
same,GI50,[11],7.48 µM (inactive)
same,GI50,[12],10.4 µM (inactive)
same,GI50,[55],8.85 µM (inactive)
same,GI50,[13],13 µM (inactive)
same,GI50,[14],10.4 µM (inactive)
same,GI50,[15],14.4 µM (inactive)
same,GI50,[16],13.7 µM (inactive)
same,GI50,[17],11.1 µM (inactive)
same,GI50,[18],17.1 µM (inactive)
same,GI50,[56],14.3 µM (inactive)
same,GI50,[19],11.4 µM (inactive)
same,GI50,[20],6.5 µM (inactive)
same,GI50,[23],0.173 µM (active)
same,GI50,[24],16.6 µM (inactive)
same,GI50,[25],13.3 µM (inactive)
same,GI50,[26],14.9 µM (inactive)
same,GI50,[28],12.9 µM (inactive)
same,GI50,[29],6.85 µM (inactive)
same,GI50,[30],11.2 µM (inactive)
same,GI50,[31],12.3 µM (inactive)
same,GI50,[32],12.9 µM (inactive)
same,GI50,[33],13.6 µM (inactive)
same,GI50,[34],2.82 µM (inactive)
same,GI50,[35],15.6 µM (inactive)
same,GI50,[36],6.5 µM (inactive)
same,GI50,[37],15.2 µM (inactive)
same,GI50,[38],14 µM (inactive)
same,GI50,[39],12.9 µM (inactive)
same,GI50,[40],11.8 µM (inactive)
same,GI50,[41],15.7 µM (inactive)
same,GI50,[43],17.4 µM (inactive)
same,GI50,[57],< 0.01 µM (active)
same,GI50,[44],15.7 µM (inactive)
same,GI50,[45],13.7 µM (inactive)
same,GI50,[46],11.9 µM (inactive)
same,GI50,[47],11.4 µM (inactive)
same,GI50,[48],13.6 µM (inactive)
same,GI50,[49],14.8 µM (inactive)
same,GI50,[58],12.3 µM (inactive)
same,GI50,[50],0.506 µM (active)
same,GI50,[59],20.4 µM (inactive)
same,GI50,[51],16.7 µM (inactive)
same,GI50,[52],11.6 µM (inactive)
same,GI50,[53],11.8 µM (inactive)
same,GI50,[54],14.9 µM (inactive)
